Assay [1] has as its target T1, Aβ42 (Homo sapiens, UniProt P05067).
T1 construct: purchased Peptide Institute, Inc. (Osaka, Japan)
The experiment in a line: ITC binding of 6 with Aβ42. How it is done:
Distinct reactivities of 6 with metal-free Aβ and metal–Aβ were supported by various biophysical approaches. […] In the absence of Aβ, an increase or decrease in the absorption of the peaks at ca. 265, 300, 340, and 410 nm was monitored for 24 h (Fig. S18 ^†), which could be resulted from the oxidation of 6 in the presence of O2.[69] These spectral changes were accelerated upon incubation with Aβ, indicative of its impact on the oxidative modification of 6. Such transformation of 6 was also indicated in the presence of Cu(II) or Zn(II) with and without Aβ. To probe the interaction of 6 with Aβ, their binding properties were analyzed by isothermal titration calorimetry (ITC). For the association between 6 and Aβ, we recorded the heat change upon constant titration of the flavonoid into the solution of Aβ, where the dilution heat was also measured to avoid the heat change induced by its addition into the buffered solution. […] Thus, 6 can bind to Aβ with a micromolar binding affinity. […]
ITC. The solutions of Ab and 6 were subjected to degassing under vacuum for 3 min prior to loading into the instrument. […] […] The initial delay and the reference power were 60 s and 10 µcal/s, respectively. Dilution heat of 6 only was also measured under the same experimental conditions.
The ITC thermogram and binding isotherm were shown after the subtraction of the dilution heat.
The binding isotherm after baseline correction was fitted to the one-set-of-sites binding model using the MicroCal Origin software (version 7.0).
Expression and Purification of 15N-labeled Recombinant Ab42. 15N-labeled recombinant Ab42 was expressed in E. coli and purified as previously reported.27 Briefly, the DNA sequence coding the human Ab42 peptide was artificially constructed using codons preferred by E. coli with an extra Met residue at the N-terminal of the peptide. The DNA construct was inserted into pAED4 vector28 and the E. coli BL21 (DE3) pLysS strain (Novagen, Inc., Madison, WI, USA) was utilized in the protein expression. Transformed cells were incubated in LB media containing ampicillin and chloramphenicol until the cultures reach 3.5 McFarland turbidity. Cells were then harvested by centrifugation and the cell pellets were resuspended in M9 minimal media containing isotopically labeled 1 g/L 15N ammonium chloride, and induced by addition of 1 mM IPTG for 4 h. The peptide formed inclusion bodies in the bacterial cells. The purified inclusion bodies were dissolved in 20 mM NaOH and the peptide was further purified by repeated cycles of amyloid growth at low pH

Another assay deals with T2, Aβ40 (Homo sapiens, UniProt P05067).
T2 construct: Ab40 ([…]-; purchased Peptide Institute, Inc. (Osaka, Japan)
The assay can be described thus: ESI-MS and ESI-MS2 of Aβ40 treated with 6. Particulars: 6 200 μM, 3 h. From the text: (§1) To identify the modifications of Aβ in both the absence and presence of Cu(II) upon treatment of 6, we carried out the studies employing electrospray ionization mass spectrometry (ESI-MS). In the sample containing metal-free Aβ42 and 6, the addition of +16 Da into the +3-charged Aβ42 monomer, assigned to be the oxidized monomeric Aβ42, was detected (Fig. 7a), while such oxidation was not observed under anaerobic conditions (Fig. S20 ^†). To determine the oxidized amino acid residues in Aβ42, the b fragments generated by collision-induced dissociation were analyzed by tandem MS (ESI-MS^2). As illustrated in Fig. 7b and S21a, ^† the Met35 residue was measured to be the oxidation site in the singly oxidized Aβ42. […] Similar to metal-free Aβ42, the oxidation of Aβ40 at the Met35 residue was monitored by incubation with 6 (Fig. S22a, b and S23a ^†). […]
(§2) 2D 1H−15N SOFAST-HMQC NMR Experiments. […] Experimental data were processed with NMRpipe29 and Sparky 3.115.30 The 1H and 15N assignments of 15N-labeled Ab were determined based on the previous results.21,31 The chemical shift perturbation was calculated following the equation (eq 4).32 Note that DdH and DdN represent the alterations in the chemical shifts of 1H and 15N of 15N-labeled Ab, respectively. […]

Assay [2] concerns the target T1, Aβ42. The assay can be described thus: ESI-MS and ESI-MS2 of Aβ42 treated with 6. Particulars: 6 200 μM, 3 h.
Excerpt: as §1, §2

Structures are written as SMILES.

T1 sequence (P05067 672-713 limits assumed): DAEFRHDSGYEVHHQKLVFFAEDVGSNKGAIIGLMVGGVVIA
T2 sequence (P05067 672-711 limits assumed): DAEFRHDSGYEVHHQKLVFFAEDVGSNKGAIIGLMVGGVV

Turning to `O=c1c(-c2ccc(O)c(O)c2)coc2cc(O)c(O)c(O)c12` [compound 6, 3-(3,4-dihydroxyphenyl)-5,6,7-trihydroxy-4H-chromen-4-one], the Kd at Aβ42 [1] (one-site model, 10 °C, read-out: Binding affinity) is about 19.5 µM. Further, on Aβ42 [1] (pH 7.4, 10 °C), the TΔS is reported as 5.6 (±0.1) kcal mol^−1, the ΔG is −6.1 (±0.1) kcal mol^−1 and the ΔH is given as −0.5 (±0.1) kcal mol^−1. The “plausible oxidation sites in singly oxidized Aβ” value on Aβ40 (Cu(II)–Aβ40, Cu(II) 100 μM) is “His13, His14, and Met35”. For the same compound, the “oxidation site in singly oxidized Aβ” value at Aβ40 (metal-free Aβ40 100 μM) was “Met35”. Further, on Aβ42 [2] (Cu(II)–Aβ42, Cu(II) 100 μM), the “plausible oxidation sites in singly oxidized Aβ” value was “His13, His14, and Met35”. Moreover, at Aβ42 [2] (metal-free Aβ42 100 μM, aerobic), the “oxidation site in singly oxidized Aβ” value was “Met35”.

Values taken from article PMC10498667 (Chemical Science, 2023).
